The text below walks through data of US10676538B2, “Inhibitors of Staphylococcus pseudintermedius sortase” (priority 2017, dated 2020).

Assay [1] has as its system S. pseudintermedius recombinant SrtA. Nature of the assay: in vitro FRET-based functional assay of recombinant SrtA. The class given is biochemical, Staphylococcus pseudintermedius. Conditions: compared to buffer controls, averages from three independent experiments. The method, then: Compounds predicted to bind to the active site were identified. Initially, from the 200 highest ranked compounds, twenty were selected. […] The assay to determine the functional activity of recombinant SrtA and its inhibition was performed in 96-well black microtiter plates with clear bottom (Corning, Fisher Scientific, Hampton, N.H.) in a final reaction volume of 200 μl. Fluorescent-quenched bacterial sortase substrate III, Abz/DNP (Abz-LPETG-K(Dnp)-NH2 (GenScript Inc., Piscataway, N.J.) dissolved in isopropanol was used for Km determination. Varying concentrations of the substrate (2.5 μM-200 μM) were incubated at 25° C. with 1 μM of SrtA diluted in assay buffer (50 mM Tris-HCl, 150 mM NaCl, 5 mM CaCl2, and 0.1% Triton X-100, pH 7.5). The increase in fluorescence was measured in a kinetic assay for 20 min at 2 min intervals using a Synergy HTX multimode reader (BioTek, Winooski, Vt.) at wavelengths 320 excitation/420 emission. The initial velocity V0 was determined from the linear portion of the curve and the Km was determined using the Michaelis-Menten equation where V=Vmax[S]/([S]+Km). To measure the effect of inhibitors recombinant SrtA was pre-incubated with varying amounts of the inhibitor at […] and subjected to the same FRET assay.

Assay [2] relates to S. pseudintermedius isolates. Put plainly: flow cytometry of cell wall-associated Protein A on bacteria grown with inhibitor (indirect SrtA inhibition). The class given is cell-based, Staphylococcus pseudintermedius. To be noted: compared to control without inhibitor. The method, then: FIG. 4: […] bacterial isolates 08-3228, 08-1661, NA12, NA16 and NA45 were grown in the presence of inhibitor 1847 until exponential log phase. S. pseudintermedius recombinant SrtA inhibition was measured indirectly by determining the density of cell wall associated Protein A (one of the LPXTG proteins targeted by SrtA) using flow cytometry. Protein A was detected with FITC conjugated chicken anti-protein A (Gallus immunotech, Cary, N.C.). The values represent average from three independent experiments with the standard deviations shown at the top of each bar.
Inhibition of SrtA in bacterial cells was measured indirectly by measuring the decrease in the amount of Protein A on the bacterial surface using flow cytometry. Five representative S. pseudintermedius isolates were tested. […] Isolate NA45 was not affected by compound 1847.
For orientation: A flow cytometer gives signals particle by particle.

The subject of a further assay is Sortase A. Conditions: 10 μM SrtA, 4 μM inhibitor.

Each structure is given as a SMILES string. Like-named read-outs stand apart in the source and are kept apart here.

Procedure for Sortase A: The native enzyme, enzyme-inhibitor complex and appropriate controls were added to the wells of a 48-well plate (total reaction volume 10 μl/well). The reactions contained SYPRO orange (Invitrogen, Carlsbad, Calif.) purchased as a 5,000× stock and used at a 2× final concentration.

In the case of `COc1ccc(N2CCN(S(=O)(=O)Cc3ccc(F)cc3)CC2)cc1` [STL223442], the “inhibition of SrtA” value in assay [1] is recorded as 13.75%.

Turning to `C[N+](C)(C)CCSS(C)(=O)=O.[Br-]` [MTSET, reference compound], the “inhibition of SrtA” value in assay [1] is reported as 57.5%.

In the case of `N#Cc1ccc(NS(=O)(=O)Cc2ccccc2)cc1` [STK022091], the “inhibition of SrtA” value in assay [1] is on record as “did not have any detectable inhibitory effect”; in assay [1] (listed as SKT022091), “did not have inhibitory effect”.

Take `O=S(=O)(O)c1ccc(N=Nc2ccccc2)cc1` [Compound 1847]: the “reduction in the density of cell wall-associated Protein A” value in assay [2] (isolate 06-3228) was 38.7%; in assay [2] (isolate 08-1661), 74.3%; in assay [2] (isolate NA12) it was 42.8%; in assay [2] (isolate NA16) it was 89.4%; in assay [2] (isolate NA45) it was “not affected”. Also, the “melting temperature of 1847-stabilized Sortase A” value in the assay on Sortase A (Srt A in His-Tag elution buffer) was 86.56 °C; in the assay on Sortase A (Srt A in PBS) it was 86.81 °C. Also, in assay [1], the “inhibition of SrtA” value was 50-80%.
